{"source": "patent US20140066367A1", "about": "“SUBCUTANEOUS DELIVERY OF A LONG-ACTING NATRIURETIC PEPTIDE” (Mayo Foundation for Medical Education and Research, priority 2012, published 2014)", "key": {"[1]": {"assay": "Mean arterial pressure and heart rate after subcutaneous administration to conscious canines", "assay_type": "in vivo, canine", "details": "SQ", "description": "(§1) Studies were performed in accordance with the Animal Welfare Act and with approval of the Mayo Clinic Institutional Animal Care and Use Committee. A randomized crossover study was designed in which equimolar (2.225 nmol/kg) SQ M-ANP and SQ ANP were administered to conscious healthy adult canines (n=5) at 2-week intervals. Vehicle (SQ 0.9% normal saline) was administered to 3 canines serving as a control group. At least 7 days prior to the above studies, an arterial port was placed in the femoral artery as previously described (Cataliotti et al. (2008) Circulation, 118:1729-1736). After recovery from arterial port placement, canines were fed a fixed sodium diet of 100 mEq/d with ad libitum access to water for 5 days before initiation of studies. During this time, canines were acclimatized to standing calm in a sling. On the day of the experiment, the dogs were fasted and placed in a sling in a quiet room. Thirty minutes before the beginning of the experiment, the femoral artery port was accessed for continuous BP and heart rate assessment (iWorx, Dover, N.H.). After 30 minutes of acclimatization, the study protocol was started. Subcutaneous M-ANP, ANP or vehicle was administered at time 0 minutes. At time −15, 0, 5, 10, 15, 30, 45, 60, 75, 90, 120, 150, 180, 210, 240, 270, and 300 minutes, mean arterial pressure (MAP) and heart rate samples were obtained over a period of 1 minute. […]"}, "[2]": {"assay": "Plasma ANP immunoreactivity and pharmacokinetics after subcutaneous administration to conscious canines", "assay_type": "in vivo, canine", "description": "as §1\n(§2) Blood samples were collected in chilled EDTA tubes, immediately placed on ice, and centrifuged at 4° C. […] After extraction, plasma ANP immunoreactivity (Phoenix Pharmaceuticals, Burlingame, Calif.) was assessed by radioimmunoassay as previously described (Burnett et al. (1986) Science, 231:1145-1147). […] Plasma cGMP (PerkinElmer, Waltham, Mass.) was assessed by radioimmunoassay (Steiner et al., supra).\n(§3) Pharmacokinetic profile of M-ANP compared to ANP was determined using PK Solutions software (Summit PK, Montrose, Colo.). Specific parameters that were determined included plasma half-life, maximum concentration (Cmax) and area under the curve (AUC)."}, "cGMP": {"tested_on": "cGMP", "assay": "Plasma cGMP after subcutaneous administration to conscious canines", "assay_type": "in vivo, canine", "description": "as §1, §2, §3"}, "[3]": {"details": "infusion of a low dose, normal dogs; cited from earlier work"}, "[4]": {"details": "plasma cGMP, subcutaneous, equimolar 2.225 nmol/kg, conscious canines"}}}
{"smiles": "CC[C@H](C)[C@@H]1NC(=O)[C@H](CCCNC(=N)N)NC(=O)[C@H](CC(=O)O)NC(=O)[C@H](CCSC)NC(=O)[C@H](CCCNC(=N)N)NC(=O)CNC(=O)CNC(=O)[C@H](Cc2ccccc2)NC(=O)[C@@H](NC(=O)[C@H](CO)NC(=O)[C@H](CO)NC(=O)[C@H](CCCNC(=N)N)NC(=O)[C@H](CCCNC(=N)N)NC(=O)[C@H](CC(C)C)NC(=O)[C@@H](N)CO)CSSC[C@@H](C(=O)N[C@@H](CC(N)=O)C(=O)N[C@@H](CO)C(=O)N[C@@H](Cc2ccccc2)C(=O)N[C@@H](CCCNC(=N)N)C(=O)N[C@@H](Cc2ccc(O)cc2)C(=O)O)NC(=O)CNC(=O)[C@H](CC(C)C)NC(=O)CNC(=O)[C@H](CO)NC(=O)[C@H](CCC(N)=O)NC(=O)[C@H](C)NC(=O)CNC1=O", "note": "[ANP]", "values": [{"measurement": "effect on MAP", "setting": "[1]", "value": "no significant reduction in MAP"}, {"measurement": "time ANP immunoreactivity remained significantly elevated", "setting": "[2]; SQ, canines", "value": 45, "unit": "min"}, {"measurement": "time of peak ANP immunoreactivity after administration", "setting": "[2]; SQ, canines", "value": 15, "unit": "min"}, {"measurement": "ANPi AUC", "setting": "[2]; subcutaneous, equimolar 2.225 nmol/kg, conscious canines", "value": "10.8 ± 2.4", "unit": "pmol·min/mL"}, {"measurement": "duration of sustained cGMP activation", "setting": "cGMP; SQ, canines", "value": 60, "unit": "min"}, {"measurement": "cGMP AUC", "setting": "cGMP; [4]", "value": "676 ± 211", "unit": "pmol·min/mL"}, {"measurement": "cGMP Cmax", "setting": "cGMP; [4]", "value": "14.7 ± 1.9", "unit": "pmol/mL"}, {"measurement": "change in glomerular filtration rate (GFR) or MAP", "setting": "[3]", "value": "No change"}]}
